From the supplement of paper PMC11208160

Assay: recombinant UMI read abundance after kanamycin selection (control-corrected) (log10(CPM+1)); higher = more efficient recombination; extreme values may be limits of the assay; sequences stand for … in AGTGCAGAGAAAATCGGCCAGTTTTCTCTGCCTGCAGTCCGCATGCCGTGGGACCCCTTGGGTTCTAACCTGTTGCCTAGATTTATGCAGCGGACTGCCTTTCTCCCAAAGTGATAAACCGG…AGGTTGGTTTCACT; site = the 11-nt donor
Summary of the method: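 Each donor and donor-binding-loop pair was tracked by a 12-nt UMI on a plasmid carrying a promoterless kanamycin gene. With a second plasmid supplying a fixed target and T7-inducible IS621 bridge recombinase, the pool was plated in Escherichia coli on IPTG (0.07 mM) plus kanamycin or unselected. Sequencing of recombinant UMIs across the donor–target junction gave counts expressed as log10(CPM+1) after replicate averaging and control-derived scaling.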
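Note: IS621 bridge recombinase in Escherichia coli cells against a fixed T5 target plasmid.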

## CCCGGACCATGGACCGGTTTTCCCGGTAATCCGTATTTGCA (site CCCGGTCCTTG)
  recombinant UMI read abundance (log10): 0.0045

## CCCGGTCCATGGACCGGTTTTCCCGGTAATCCGTATTTGCG (site CCCGGTCCTAG)
  recombinant UMI read abundance (log10): 0

## CCCGGTCCATGGACCGGTTTTCCCGGTAATCCGTATTTGCG (site CCCGGTCCTCG)
  recombinant UMI read abundance (log10): 0

## CCCGGTCCATGGACCGGTTTTCCCGGTAATCCGTATTTGCG (site CCCGGTCCTGG)
  recombinant UMI read abundance (log10): 0

## CCCGGTCCATGGACCGGTTTTCCCGGTAATCCGTATTTGCG (site CCCGGTCCTTG)
  recombinant UMI read abundance (log10): 0

## CCCGGTCCATGGACCGGTTTTCCCGGTAATCCGTATTTGGA (site CCCGGTCCTTA)
  recombinant UMI read abundance (log10): 0.00376

## CCCGGTCCATGGACCGGTTTTCCCGGTAATCCGTATTTGGA (site CCCGGTCCTTC)
  recombinant UMI read abundance (log10): 0.0256

## CCCGGTCCATGGACCGGTTTTCCCGGTAATCCGTATTTGGA (site CCCGGTCCTTG)
  recombinant UMI read abundance (log10): 0

## CCCGGTCCATGGACCGGTTTTCCCGGTAATCCGTATTTGGA (site CCCGGTCCTTT)
  recombinant UMI read abundance (log10): 0.0436

## CCCGGTTCATGGACCGGTTTTCCCGGTAATCCGTATTTGCT (site CCCGGTTCTAG)
  recombinant UMI read abundance (log10): 0

## CCCTATCCATGGACCGGTTTTCCCGGTAATCCGTATTTGCC (site CCCTAACCTGG)
  recombinant UMI read abundance (log10): 0

## CCCTATCCATGGACCGGTTTTCCCGGTAATCCGTATTTGCC (site CCCTACCCTGG)
  recombinant UMI read abundance (log10): 0

## CCCTATCCATGGACCGGTTTTCCCGGTAATCCGTATTTGCC (site CCCTAGCCTGG)
  recombinant UMI read abundance (log10): 0

## CCCTATCCATGGACCGGTTTTCCCGGTAATCCGTATTTGCC (site CCCTATCCTGG)
  recombinant UMI read abundance (log10): 0.417

## CCCTGCTCATGGACCGGTTTTCCCGGTAATCCGTATTTGGG (site CCCTACTCTCC)
  recombinant UMI read abundance (log10): 0.174

## CCCTGCTCATGGACCGGTTTTCCCGGTAATCCGTATTTGGG (site CCCTCCTCTCC)
  recombinant UMI read abundance (log10): 0.027

## CCCTGCTCATGGACCGGTTTTCCCGGTAATCCGTATTTGGG (site CCCTGCTCTCC)
  recombinant UMI read abundance (log10): 0.409

## CCCTGCTCATGGACCGGTTTTCCCGGTAATCCGTATTTGGG (site CCCTTCTCTCC)
  recombinant UMI read abundance (log10): 0.018

## CCCTGGCCATGGACCGGTTTTCCCGGTAATCCGTATTTGCC (site CCCTAGCCTGG)
  recombinant UMI read abundance (log10): 0

## CCCTGGCCATGGACCGGTTTTCCCGGTAATCCGTATTTGCC (site CCCTCGCCTGG)
  recombinant UMI read abundance (log10): 0

## CCCTGGCCATGGACCGGTTTTCCCGGTAATCCGTATTTGCC (site CCCTGGCCTGG)
  recombinant UMI read abundance (log10): 0

## CCCTGGCCATGGACCGGTTTTCCCGGTAATCCGTATTTGCC (site CCCTTGCCTGG)
  recombinant UMI read abundance (log10): 0

## CCCTTCACATGGACCGGTTTTCCCGGTAATCCGTATTTGGG (site CCCTTCACTCC)
  recombinant UMI read abundance (log10): 0.004

## CCCTTCACATGGACCGGTTTTCCCGGTAATCCGTATTTGGG (site CCCTTCCCTCC)
  recombinant UMI read abundance (log10): 0.0128

## CCCTTCACATGGACCGGTTTTCCCGGTAATCCGTATTTGGG (site CCCTTCGCTCC)
  recombinant UMI read abundance (log10): 0.0224

## CCCTTCACATGGACCGGTTTTCCCGGTAATCCGTATTTGGG (site CCCTTCTCTCC)
  recombinant UMI read abundance (log10): 0.0124

## CCCTTCCCATGGACCGGTTTTCCCGGTAATCCGTATTTGGG (site CCCTTCACTCC)
  recombinant UMI read abundance (log10): 0.0226

## CCCTTCCCATGGACCGGTTTTCCCGGTAATCCGTATTTGGG (site CCCTTCCCTCC)
  recombinant UMI read abundance (log10): 0.00862

## CCCTTCCCATGGACCGGTTTTCCCGGTAATCCGTATTTGGG (site CCCTTCGCTCC)
  recombinant UMI read abundance (log10): 0.00355

## CCCTTCCCATGGACCGGTTTTCCCGGTAATCCGTATTTGGG (site CCCTTCTCTCC)
  recombinant UMI read abundance (log10): 0.0121

## CCCTTCTCATGGACCGGTTTTCCCGGTAATCCGTATTTGGC (site CCCTTCTCTAC)
  recombinant UMI read abundance (log10): 0.0232

## CCCTTCTCATGGACCGGTTTTCCCGGTAATCCGTATTTGGC (site CCCTTCTCTCC)
  recombinant UMI read abundance (log10): 0.455

## CCCTTCTCATGGACCGGTTTTCCCGGTAATCCGTATTTGGC (site CCCTTCTCTGC)
  recombinant UMI read abundance (log10): 1.71

## CCCTTCTCATGGACCGGTTTTCCCGGTAATCCGTATTTGGC (site CCCTTCTCTTC)
  recombinant UMI read abundance (log10): 0.00807

## CCGAAGCCATGGACCGGTTTTCCCGGTAATCCGTATTTGTG (site CCGAAGCCTCA)
  recombinant UMI read abundance (log10): 0.0182

## CCGAATCCATGGACCGGTTTTCCCGGTAATCCGTATTTGCT (site CCGAATCCTAG)
  recombinant UMI read abundance (log10): 0.196

## CCGAATCCATGGACCGGTTTTCCCGGTAATCCGTATTTGCT (site CGGAATCCTAA)
  recombinant UMI read abundance (log10): 0

## CCGAATTCATGGACCGGTTTTCCCGGTAATCCGTATTTGGG (site CCGAATTCTCC)
  recombinant UMI read abundance (log10): 0

## CCGCACACATGGACCGGTTTTCCCGGTAATCCGTATTTGAA (site CCGCACACTTT)
  recombinant UMI read abundance (log10): 0.931

## CCGCATCCATGGACCGGTTTTCCCGGTAATCCGTATTTGGG (site CCGCATCCTCC)
  recombinant UMI read abundance (log10): 0.0031

## CCGCCAACATGGACCGGTTTTCCCGGTAATCCGTATTTGAG (site CCGCCAACTCT)
  recombinant UMI read abundance (log10): 0.356

## CCGCGGGCATGGACCGGTTTTCCCGGTAATCCGTATTTGCC (site CCGCGGGCTGG)
  recombinant UMI read abundance (log10): 1.43

## CCGCGTGCATGGACCGGTTTTCCCGGTAATCCGTATTTGCG (site CCGCGTGCTCG)
  recombinant UMI read abundance (log10): 0.222

## CCGCTCTCATGGACCGGTTTTCCCGGTAATCCGTATTTGTT (site CCGCTCTCTAA)
  recombinant UMI read abundance (log10): 1.51

## CCGCTGCCATGGACCGGTTTTCCCGGTAATCCGTATTTGAA (site CCGCTGCCTTT)
  recombinant UMI read abundance (log10): 0.0286

## CCGCTTACATGGACCGGTTTTCCCGGTAATCCGTATTTGGA (site CCGCTTACTTC)
  recombinant UMI read abundance (log10): 0.539

## CCGGACCCATGGACCGGTTTTCCCGGTAATCCGTATTTGTT (site CCGGACCCTAA)
  recombinant UMI read abundance (log10): 0.0191

## CCGGCACCATGGACCGGTTTTCCCGGTAATCCGTATTTGAT (site CCGGCACCTAT)
  recombinant UMI read abundance (log10): 0.00703

## CCGGCATCATGGACCGGTTTTCCCGGTAATCCGTATTTGCG (site CCGGCATCTCG)
  recombinant UMI read abundance (log10): 0

## CCGGCCGCATGGACCGGTTTTCCCGGTAATCCGTATTTGCC (site CCGGCCGCTGG)
  recombinant UMI read abundance (log10): 0

## CCGGGGCCATGGACCGGTTTTCCCGGTAATCCGTATTTGGT (site CCGGGGCCTAC)
  recombinant UMI read abundance (log10): 0.0146

## CCGGGTCCATGGACCGGTTTTCCCGGTAATCCGTATTTGCA (site CCAGGTCCTTG)
  recombinant UMI read abundance (log10): 0

## CCGGGTCCATGGACCGGTTTTCCCGGTAATCCGTATTTGCA (site CCCGGTCCTTG)
  recombinant UMI read abundance (log10): 0

## CCGGGTCCATGGACCGGTTTTCCCGGTAATCCGTATTTGCA (site CCGGGTCCTTG)
  recombinant UMI read abundance (log10): 0.00309

## CCGGGTCCATGGACCGGTTTTCCCGGTAATCCGTATTTGCA (site CCTGGTCCTTG)
  recombinant UMI read abundance (log10): 0.0157

## CCGGTAACATGGACCGGTTTTCCCGGTAATCCGTATTTGCG (site CCGGTAACTCG)
  recombinant UMI read abundance (log10): 0.686

## CCGTAACCATGGACCGGTTTTCCCGGTAATCCGTATTTGGT (site CCGTAACCTAC)
  recombinant UMI read abundance (log10): 0

## CCGTAGCCATGGACCGGTTTTCCCGGTAATCCGTATTTGCC (site CCATAGCCTGG)
  recombinant UMI read abundance (log10): 0

## CCGTAGCCATGGACCGGTTTTCCCGGTAATCCGTATTTGCC (site CCCTAGCCTGG)
  recombinant UMI read abundance (log10): 0

## CCGTAGCCATGGACCGGTTTTCCCGGTAATCCGTATTTGCC (site CCGTAGCCTGG)
  recombinant UMI read abundance (log10): 0

## CCGTAGCCATGGACCGGTTTTCCCGGTAATCCGTATTTGCC (site CCTTAGCCTGG)
  recombinant UMI read abundance (log10): 0

## CCGTATACATGGACCGGTTTTCCCGGTAATCCGTATTTGCT (site CCGTATACTAG)
  recombinant UMI read abundance (log10): 1.24

## CCGTATACATGGACCGGTTTTCCCGGTAATCCGTATTTGCT (site CCGTCTACTAG)
  recombinant UMI read abundance (log10): 0

## CCGTATACATGGACCGGTTTTCCCGGTAATCCGTATTTGCT (site CCGTGTACTAG)
  recombinant UMI read abundance (log10): 0

## CCGTATACATGGACCGGTTTTCCCGGTAATCCGTATTTGCT (site CCGTTTACTAG)
  recombinant UMI read abundance (log10): 0

## CCGTATGCATGGACCGGTTTTCCCGGTAATCCGTATTTGAA (site CCGTATGCTTT)
  recombinant UMI read abundance (log10): 1.14

## CCGTCCCCATGGACCGGTTTTCCCGGTAATCCGTATTTGCT (site CCGTCCCCTAG)
  recombinant UMI read abundance (log10): 0.00559

## CCGTCGACATGGACCGGTTTTCCCGGTAATCCGTATTTGGG (site CAGTCGACTCC)
  recombinant UMI read abundance (log10): 0.01

## CCGTCGACATGGACCGGTTTTCCCGGTAATCCGTATTTGGG (site CCGTCGACTCC)
  recombinant UMI read abundance (log10): 0.0232

## CCGTCGACATGGACCGGTTTTCCCGGTAATCCGTATTTGGG (site CGGTCGACTCC)
  recombinant UMI read abundance (log10): 0.0251

## CCGTCGACATGGACCGGTTTTCCCGGTAATCCGTATTTGGG (site CTGTCGACTCC)
  recombinant UMI read abundance (log10): 0

## CCGTTAACATGGACCGGTTTTCCCGGTAATCCGTATTTGCT (site CCGTTAACTAG)
  recombinant UMI read abundance (log10): 2.18

## CCGTTAACATGGACCGGTTTTCCCGGTAATCCGTATTTGCT (site CCGTTCACTAG)
  recombinant UMI read abundance (log10): 0

## CCGTTAACATGGACCGGTTTTCCCGGTAATCCGTATTTGCT (site CCGTTGACTAG)
  recombinant UMI read abundance (log10): 0.00307

## CCGTTAACATGGACCGGTTTTCCCGGTAATCCGTATTTGCT (site CCGTTTACTAG)
  recombinant UMI read abundance (log10): 0
